Patent US12655142B2 (Merck Patent GmbH, priority 2019, dated 2026)

How the values were obtained:
c-Kit(V654A) = target: T1, c-Kit(V654A) (Homo sapiens, UniProt P10721, V654A); assay: c-Kit(V654A) assay (33P-ATP filter binding kinase assay); format: biochemical; details: recombinant human c-Kit aa 544-end V654A, ATP 200 μM
T1 construct: recombinant human c-Kit, amino acids 544-end containing the V654A mutation; GST (N)
Procedure: c-Kit(V654A) (N-terminal GST-tagged, recombinant human c-Kit, amino acids 544-end containing the V654A mutation) is incubated with 8 mM MOPS pH 7.0, 0.2 mM EDTA, 250 μM GGMEDIYEFMGGKKK, 10 mM MgAcetate and [gamma-33P-ATP] (specific activity approx. 500 cpm/pmol, concentration 200 μM). The reaction is initiated by the addition of the MgATP mix. After incubation for 40 minutes at room temperature, the reaction is stopped by the addition of 3% phosphoric acid solution. 10 μL of the reaction is then spotted onto a P30 filtermat and washed three times for 5 minutes in 75 mM phosphoric acid and once in methanol prior to drying and scintillation counting.

[1] = target: T2, GIST430/654 cell line expressing mutated constitutively active cKIT receptor tyrosine kinase (Δ560-576 deletion and V654A point mutation) (Homo sapiens, UniProt P10721, DEL560-576/V654A); assay: Cellular cKIT autophosphorylation (phospho-Y307-cKIT, Luminex bead assay) in GIST430/654 cells; format: cell-based; details: compounds 45 min, read-out: GIST 430/654 IC50
T2 construct: endogenous in cells; host or cells: GIST430/654 cells
Procedure: Assay Principle for Cellular Testing of cKIT Mutant Inhibitors
The GIST430 cell line expressing constitutive active cKIT receptor tyrosine kinase (Δ560-576 deletion) and the Imatinib resistant GIST430/654 cell line expressing mutated constitutively active cKIT receptor tyrosine kinase (Δ560-576 deletion and V654A point mutation) were employed for assessing cellular potency of compounds. Cellular activity of mutant cKIT was determined by the degree of cKIT autophosphorylation at tyrosine 307 using a Luminex-based bead assay. GIST430 cells were plated with 22,000 cells per well of a 96-well plate in 100 μl medium (85% IMDM/15% FCS) and GIST430/654 cells were plated with 25,000 cells per well of a 96-well plate in 100 μl medium (85% IMDM/15% FCS supplemented with 100 nM Imatinib). At the following day compounds were added in a serial dilution for 45 min. Then, cells were lysed with 90 μl lysis buffer (20 mM Hepes pH 7.5, 200 mM NaCl, 1.5 mM MgCl2×6H2O, 0.4 mM EDTA, 1% Triton-X-100, 1% Phosphatase-Inhibitor II, 20 mM β-Glycerolphosphat, 0.1% Protease-Inhibitor Cocktail III, 0.01% Benzonase) and lysates were cleared by centrifugation through a 96-well filter plate (0.65 μm). Samples were incubated with Luminex-beads which were coupled with an anti-total cKIT antibody overnight at 4° C. under gentle agitation. For detection of phospho-Y307-cKIT a phosphospecific antibody and a species-specific PE-labeled secondary antibody were added. The amount of phospho-Y307-cKIT was determined in a Luminex 200 instrument measuring 100 events per well within 60 seconds.
Counts from samples treated with compounds were calculated as percent of control from solvent treated (0.3% DMSO) samples. Dose-response curves were fitted and IC50 values were determined using Genedata Screener software.

T1 sequence (P10721 544-976 V654A): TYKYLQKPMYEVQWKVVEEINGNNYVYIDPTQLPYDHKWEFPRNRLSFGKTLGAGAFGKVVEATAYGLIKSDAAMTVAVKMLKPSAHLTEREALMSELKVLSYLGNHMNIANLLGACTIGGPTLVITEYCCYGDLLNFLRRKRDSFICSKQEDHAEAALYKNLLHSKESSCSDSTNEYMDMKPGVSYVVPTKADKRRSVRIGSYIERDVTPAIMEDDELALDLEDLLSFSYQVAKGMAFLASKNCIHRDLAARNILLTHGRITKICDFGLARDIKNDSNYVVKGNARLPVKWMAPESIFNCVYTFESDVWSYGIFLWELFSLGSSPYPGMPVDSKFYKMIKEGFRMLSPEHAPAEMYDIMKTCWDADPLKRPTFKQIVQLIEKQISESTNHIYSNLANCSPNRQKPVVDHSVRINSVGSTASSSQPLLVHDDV
T2 sequence (P10721 with tags, fused parts or gaps DEL560-576/V654A): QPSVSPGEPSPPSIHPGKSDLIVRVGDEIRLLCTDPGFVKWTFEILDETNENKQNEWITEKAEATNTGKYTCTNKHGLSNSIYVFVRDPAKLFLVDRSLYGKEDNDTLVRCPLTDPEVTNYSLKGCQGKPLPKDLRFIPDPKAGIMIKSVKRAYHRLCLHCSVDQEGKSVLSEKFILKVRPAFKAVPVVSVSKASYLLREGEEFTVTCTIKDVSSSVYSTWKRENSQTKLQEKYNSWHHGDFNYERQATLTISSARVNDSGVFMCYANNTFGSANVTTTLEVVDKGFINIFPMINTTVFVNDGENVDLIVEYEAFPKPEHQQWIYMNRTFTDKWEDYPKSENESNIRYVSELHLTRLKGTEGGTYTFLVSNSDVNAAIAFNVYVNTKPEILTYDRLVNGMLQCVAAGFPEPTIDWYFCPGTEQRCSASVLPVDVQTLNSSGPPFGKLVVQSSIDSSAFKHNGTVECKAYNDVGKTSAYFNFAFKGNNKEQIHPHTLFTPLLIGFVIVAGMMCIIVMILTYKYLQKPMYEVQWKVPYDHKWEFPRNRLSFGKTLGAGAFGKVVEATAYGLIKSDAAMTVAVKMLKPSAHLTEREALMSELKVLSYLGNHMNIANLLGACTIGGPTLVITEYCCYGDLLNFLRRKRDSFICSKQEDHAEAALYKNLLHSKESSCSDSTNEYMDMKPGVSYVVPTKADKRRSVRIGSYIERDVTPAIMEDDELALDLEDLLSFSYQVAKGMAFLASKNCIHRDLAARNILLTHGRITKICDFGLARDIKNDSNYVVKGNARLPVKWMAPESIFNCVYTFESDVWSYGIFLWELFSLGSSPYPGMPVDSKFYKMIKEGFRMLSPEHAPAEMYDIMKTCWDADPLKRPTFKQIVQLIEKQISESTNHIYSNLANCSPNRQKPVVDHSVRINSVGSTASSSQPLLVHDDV

SMILES: Cn1cc(-c2ccc(CNc3cc(-c4cnc5cc([N+](=O)[O-])ccn45)ncn3)cc2)cn1 [A81, N-{[4-(1-methyl-1H-pyrazol-4-yl)phenyl]methyl}-6-{7-nitroimidazo[1,2-a]pyridin-3-yl}pyrimidin-4-amine]
- IC50 (c-Kit(V654A)): 27 nM
- IC50 [1]: 970 nM

SMILES: Cn1cc(-c2ccc(CNc3cc(-c4cnc5cc(Cl)ccn45)ncn3)cc2)cn1 [A82, 6-{7-chloroimidazo[1,2-a]pyridin-3-yl}-N-{[4-(1-methyl-1H-pyrazol-4-yl)phenyl]methyl}pyrimidin-4-amine]
- IC50 (c-Kit(V654A)): 9.2 nM
- IC50 [1]: 270 nM

SMILES: CN1CCN(CCOc2ccn3c(-c4cc(OCc5ccc(-c6cnn(C)c6)cc5)ncn4)cnc3c2)CC1 [A86, 7-[2-(4-methyl-piperazin-1-yl)-ethoxy]-3-{6-[4-(1-methyl-1H-pyrazol-4-yl)-benzyloxy]-pyrimidin-4-yl}-imidazo[1,2-a]pyridine]
- IC50 (c-Kit(V654A)): 5 nM
- IC50 [1]: 110 nM

SMILES: Cn1cc(-c2ccc(COc3cc(-c4cnc5cc(OCCN6CCCC6)ccn45)ncn3)cc2)cn1 [A87, 3-{6-[4-(1-methyl-1H-pyrazol-4-yl)-benzyloxy]-pyrimidin-4-yl}-7-(2-pyrrolidin-1-yl-ethoxy)-imidazo[1,2-a]pyridine]
- IC50 (c-Kit(V654A)): 11 nM
- IC50 [1]: 500 nM

SMILES: Cn1cc(-c2ccc(CNc3cc(-c4cnc5cc(OCCCN6CCOCC6=O)ccn45)ncn3)cc2)cn1 [A88, 4-[3-({3-[6-({[4-(1-methyl-1H-pyrazol-4-yl)phenyl]methyl}amino)pyrimidin-4-yl]imidazo[1,2-a]pyridin-7-yl}oxy)propyl]morpholin-3-one]
- IC50 (c-Kit(V654A)): 12 nM
- IC50 [1]: 89 nM

SMILES: Cn1cc(-c2ccc(CNc3cc(-c4cnc5cc(OCCN6CCC(F)C6)ccn45)ncn3)cc2)cn1 (stereo not drawn) [A89, 6-{7-[2-(3-fluoropyrrolidin-1-yl)ethoxy]imidazo[1,2-a]pyridin-3-yl}-N-{[4-(1-methyl-1H-pyrazol-4-yl)phenyl]methyl}pyrimidin-4-amine]
- IC50 (c-Kit(V654A)): 8.6 nM
- IC50 [1]: 82 nM

SMILES: Cn1cc(-c2ccc(COc3cc(-c4cnc5cc(OCCN6CCC(F)(F)C6)ccn45)ncn3)cc2)cn1 [A90, 7-[2-(3,3-difluoro-pyrrolidin-1-yl)-ethoxy]-3-{6-[4-(1-methyl-1H-pyrazol-4-yl)-benzyloxy]-pyrimidin-4-yl}-imidazo[1,2-a]pyridine]
- IC50 (c-Kit(V654A)): 10 nM
- IC50 [1]: 260 nM

SMILES: Cn1cc(-c2ccc(CNc3cc(-c4cnc5cc(OCCN6CCOCC6=O)ccn45)ncn3)cc2)cn1 [A92, 4-[2-({3-[6-({[4-(1-methyl-1H-pyrazol-4-yl)phenyl]methyl}amino)pyrimidin-4-yl]imidazo[1,2-a]pyridin-7-yl}oxy)ethyl]morpholin-3-one]
- IC50 (c-Kit(V654A)): 8.2 nM
- IC50 [1]: 87 nM

SMILES: CN1CCN(CCOc2ccn3c(-c4cc(NCc5ccc(-c6cnn(C)c6)cc5)ncn4)cnc3c2)CC1=O [A93, 1-methyl-4-[2-({3-[6-({[4-(1-methyl-1H-pyrazol-4-yl)phenyl]methyl}amino)pyrimidin-4-yl]imidazo[1,2-a]pyridin-7-yl}oxy)ethyl]piperazin-2-one]
- IC50 (c-Kit(V654A)): 13 nM
- IC50 [1]: 110 nM

SMILES: CN1CCN(CCCOc2ccn3c(-c4cc(NCc5ccc(-c6cnn(C)c6)cc5)ncn4)cnc3c2)CC1 [A94, N-{[4-(1-methyl-1H-pyrazol-4-yl)phenyl]methyl}-6-{7-[3-(4-methylpiperazin-1-yl)propoxy]imidazo[1,2-a]pyridin-3-yl}pyrimidin-4-amine]
- IC50 (c-Kit(V654A)): 6.8 nM
- IC50 [1]: 64 nM

SMILES: Cn1cc(-c2ccc(CNc3cc(-c4cnc5cc(OCCN6CCN(C7COC7)CC6=O)ccn45)ncn3)cc2)cn1 [A95, 1-[2-({3-[6-({[4-(1-methyl-1H-pyrazol-4-yl)phenyl]methyl}amino)pyrimidin-4-yl]imidazo[1,2-a]pyridin-7-yl}oxy)ethyl]-4-(oxetan-3-yl)piperazin-2-one]
- IC50 (c-Kit(V654A)): 9.8 nM
- IC50 [1]: 210 nM

SMILES: CN1CCN(CCCOc2ccn3c(-c4cc(NCc5ccc(-c6cnn(C)n6)cc5)ncn4)cnc3c2)CC1 [A96, N-{[4-(2-methyl-2H-1,2,3-triazol-4-yl)phenyl]methyl}-6-{7-[3-(4-methylpiperazin-1-yl)propoxy]imidazo[1,2-a]pyridin-3-yl}pyrimidin-4-amine]
- IC50 (c-Kit(V654A)): 2.9 nM
- IC50 [1]: 31 nM

SMILES: Cn1ncc(-c2ccc(CNc3cc(-c4cnc5cc(OCCc6nccn6C)ccn45)ncn3)cc2)n1 [A98, (6-{7-[2-(1-methyl-1H-imidazol-2-yl)-ethoxy]-imidazo[1,2-a]pyridin-3-yl}-pyrimidin-4-yl)-[4-(2-methyl-2H-[1,2,3]triazol-4-yl)-benzyl]-amine]
- IC50 (c-Kit(V654A)): 8.3 nM
- IC50 [1]: 98 nM

SMILES: Cn1cc(-c2ccc(CNc3cc(-c4cnc5cc(OCCCN6CCC(F)(F)C6)ccn45)ncn3)cc2)cn1 [A101, 6-{7-[3-(3,3-difluoropyrrolidin-1-yl)propoxy]imidazo[1,2-a]pyridin-3-yl}-N-{[4-(1-methyl-1H-pyrazol-4-yl)phenyl]methyl}pyrimidin-4-amine]
- IC50 (c-Kit(V654A)): 22 nM
- IC50 [1]: 150 nM

SMILES: Cn1cc(-c2ccc(CNc3cc(-c4cnc5cc(OCCN6CC7CC(C6)O7)ccn45)ncn3)cc2)cn1 [A103, [4-(1-methyl-1H-pyrazol-4-yl)-benzyl]-(6-{7-[2-(6-oxa-3-aza-bicyclo[3.1.1]hept-3-yl)-ethoxy]-imidazo[1,2-a]pyridin-3-yl}-pyrimidin-4-yl)-amine]
- IC50 (c-Kit(V654A)): 9.5 nM
- IC50 [1]: 120 nM

SMILES: Cn1ncc(-c2ccc(CNc3cc(-c4cnc5cc(OCCN6CCC(F)(F)C6)ccn45)ncn3)cc2)n1 [A105, (6-{7-[2-(3,3-difluoro-pyrrolidin-1-yl)-ethoxy]-imidazo[1,2-a]pyridin-3-yl}-pyrimidin-4-yl)-[4-(2-methyl-2H-[1,2,3]triazol-4-yl)-benzyl]-amine]
- IC50 (c-Kit(V654A)): 9.5 nM
- IC50 [1]: 120 nM

SMILES: Cn1ncc(-c2ccc(CNc3cc(-c4cnc5cc(OCc6ccccn6)ccn45)ncn3)cc2)n1 [A106, [4-(2-methyl-2H-[1,2,3]triazol-4-yl)-benzyl]-{6-[7-(pyridin-2-ylmethoxy)-imidazo[1,2-a]pyridin-3-yl]-pyrimidin-4-yl}-amine]
- IC50 (c-Kit(V654A)): 9.5 nM
- IC50 [1]: 370 nM

SMILES: Cn1cc(-c2ccc(CNc3cc(-c4cnc5cc(OCC(C)(C)N6CCOCC6)ccn45)ncn3)cc2)cn1 [A107, {6-[7-(2-methyl-2-morpholin-4-yl-propoxy)-imidazo[1,2-a]pyridin-3-yl]-pyrimidin-4-yl}-[4-(1-methyl-1H-pyrazol-4-yl)-benzyl]-amine]
- IC50 (c-Kit(V654A)): 13 nM
- IC50 [1]: 120 nM

SMILES: Cn1ncc(-c2ccc(CNc3cc(-c4cnc5cc(OCC(C)(C)N6CCOCC6)ccn45)ncn3)cc2)n1 [A109, {6-[7-(2-methyl-2-morpholin-4-yl-propoxy)-imidazo[1,2-a]pyridin-3-yl]-pyrimidin-4-yl}-[4-(2-methyl-2H-[1,2,3]triazol-4-yl)-benzyl]-amine]
- IC50 (c-Kit(V654A)): 7.5 nM
- IC50 [1]: 79 nM

SMILES: Cn1cc(-c2ccc(CNc3cc(-c4cnc5cc(OCCc6nccn6C)ccn45)ncn3)cc2)cn1 [A111, (6-{7-[2-(1-methyl-1H-imidazol-2-yl)-ethoxy]imidazo[1,2-a]pyridin-3-yl}-pyrimidin-4-yl)-[4-(1-methyl-1H-pyrazol-4-yl)-benzyl]-amine]
- IC50 (c-Kit(V654A)): 7.9 nM
- IC50 [1]: 63 nM

SMILES: Cn1ncc(-c2ccc(CNc3cc(-c4cnc5cc(OCc6cccnc6)ccn45)ncn3)cc2)n1 [A112, [4-(2-methyl-2H-[1,2,3]triazol-4-yl)-benzyl]-{6-[7-(pyridin-3-ylmethoxy)-imidazo[1,2-a]pyridin-3-yl]-pyrimidin-4-yl}-amine]
- IC50 (c-Kit(V654A)): 40 nM
- IC50 [1]: 260 nM
